Values of other authors in US20050137198A1, “Stable hydrazalazine pharmaceutical compositions” (priority 2003, published 2005).
Where two headings read alike, the source gives them in different places.

Tested on: vascular smooth muscle

NNc1nncc2ccccc12 [Hydralazine, 1-hydrazinophthalazine]
onset of action (given intravenously): 10 to 20 min
duration of action (in vivo): 3 to 4 h
onset of action (in vivo): 10 to 30 min
time of maximum hypotensive effect (in vivo): 10 to 80 min
